According to patent US20230416248A1, “COMPOUNDS AND USES THEREOF” (Foghorn Therapeutics Inc., priority 2020, published 2023):
Where two headings read alike, the source gives them in different places.

Assays:
BRM = molecular target: T1, BRM (Homo sapiens, UniProt P51531); test: ATPase catalytic activity of BRM, ADP-Glo in vitro biochemical assay; conditions: for IC50: 30 nM BRM, 400 μM ATP; for Ratio* (BRG1 IC50 (μM) divided by BRM IC50 (μM)): selectivity ratio BRG1 IC50 / BRM IC50
T1 construct: made in house; host or cells: High Five insect cells
T1 sequence (P51531 whole entry): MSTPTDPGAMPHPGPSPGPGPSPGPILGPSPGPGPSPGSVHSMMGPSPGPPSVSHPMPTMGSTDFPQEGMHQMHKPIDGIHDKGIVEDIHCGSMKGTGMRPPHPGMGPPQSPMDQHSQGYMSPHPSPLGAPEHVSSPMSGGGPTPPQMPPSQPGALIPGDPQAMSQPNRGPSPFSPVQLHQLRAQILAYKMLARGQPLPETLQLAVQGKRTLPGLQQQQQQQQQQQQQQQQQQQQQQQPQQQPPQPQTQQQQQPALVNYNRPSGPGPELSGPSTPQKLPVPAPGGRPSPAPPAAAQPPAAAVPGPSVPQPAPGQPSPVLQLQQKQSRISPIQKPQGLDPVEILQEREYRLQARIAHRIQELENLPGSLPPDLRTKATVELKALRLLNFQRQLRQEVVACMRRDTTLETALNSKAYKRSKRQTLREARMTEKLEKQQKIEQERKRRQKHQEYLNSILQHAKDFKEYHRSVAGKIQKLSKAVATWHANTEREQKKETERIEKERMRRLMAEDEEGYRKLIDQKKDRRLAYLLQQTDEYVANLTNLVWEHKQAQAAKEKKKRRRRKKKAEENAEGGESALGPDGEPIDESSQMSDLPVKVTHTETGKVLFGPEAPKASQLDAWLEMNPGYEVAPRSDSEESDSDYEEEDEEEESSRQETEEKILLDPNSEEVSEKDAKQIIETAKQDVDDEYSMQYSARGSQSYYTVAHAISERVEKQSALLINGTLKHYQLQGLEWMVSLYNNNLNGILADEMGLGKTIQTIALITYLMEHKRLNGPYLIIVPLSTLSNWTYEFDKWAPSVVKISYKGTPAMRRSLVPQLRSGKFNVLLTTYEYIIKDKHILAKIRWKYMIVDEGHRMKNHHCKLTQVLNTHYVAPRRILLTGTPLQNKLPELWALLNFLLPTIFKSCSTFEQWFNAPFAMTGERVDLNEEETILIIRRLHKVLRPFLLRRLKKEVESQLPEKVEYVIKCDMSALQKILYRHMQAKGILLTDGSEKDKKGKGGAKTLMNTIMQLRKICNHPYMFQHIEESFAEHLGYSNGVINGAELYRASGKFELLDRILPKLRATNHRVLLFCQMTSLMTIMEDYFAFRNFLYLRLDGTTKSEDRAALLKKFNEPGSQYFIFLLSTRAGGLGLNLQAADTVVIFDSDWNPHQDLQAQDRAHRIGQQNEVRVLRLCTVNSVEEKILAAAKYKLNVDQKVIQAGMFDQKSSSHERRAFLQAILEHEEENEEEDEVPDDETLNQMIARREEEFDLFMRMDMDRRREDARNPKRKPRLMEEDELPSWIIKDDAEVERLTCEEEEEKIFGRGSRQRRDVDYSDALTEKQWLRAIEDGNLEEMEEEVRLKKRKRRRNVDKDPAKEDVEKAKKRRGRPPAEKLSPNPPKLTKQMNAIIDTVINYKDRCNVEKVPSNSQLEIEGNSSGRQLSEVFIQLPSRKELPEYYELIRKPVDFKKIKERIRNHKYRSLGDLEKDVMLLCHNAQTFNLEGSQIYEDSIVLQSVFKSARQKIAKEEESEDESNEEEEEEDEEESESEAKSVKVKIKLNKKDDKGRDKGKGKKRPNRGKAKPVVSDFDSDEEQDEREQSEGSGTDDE
Summary of the method: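 Recombinant BRM (30 nM) hydrolysed 400 μM ATP with 20 nM salmon sperm DNA in pH 8 Tris buffer containing 20 mM MgCl2, 50 mM NaCl, 0.1% Tween-20 and 1 mM DTT, 1 h at room temperature. ADP formed was quantified by ADP-Glo luminescence.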

BRG-1 = molecular target: T2, BRG-1 (Homo sapiens, UniProt P51532); test: ATPase catalytic activity of BRG-1, ADP-Glo in vitro biochemical assay; conditions: 30 nM BRG-1, 400 μM ATP, read-out: BRG1 IC50
T2 construct: made in house; host or cells: High Five insect cells
T2 sequence (P51532 whole entry): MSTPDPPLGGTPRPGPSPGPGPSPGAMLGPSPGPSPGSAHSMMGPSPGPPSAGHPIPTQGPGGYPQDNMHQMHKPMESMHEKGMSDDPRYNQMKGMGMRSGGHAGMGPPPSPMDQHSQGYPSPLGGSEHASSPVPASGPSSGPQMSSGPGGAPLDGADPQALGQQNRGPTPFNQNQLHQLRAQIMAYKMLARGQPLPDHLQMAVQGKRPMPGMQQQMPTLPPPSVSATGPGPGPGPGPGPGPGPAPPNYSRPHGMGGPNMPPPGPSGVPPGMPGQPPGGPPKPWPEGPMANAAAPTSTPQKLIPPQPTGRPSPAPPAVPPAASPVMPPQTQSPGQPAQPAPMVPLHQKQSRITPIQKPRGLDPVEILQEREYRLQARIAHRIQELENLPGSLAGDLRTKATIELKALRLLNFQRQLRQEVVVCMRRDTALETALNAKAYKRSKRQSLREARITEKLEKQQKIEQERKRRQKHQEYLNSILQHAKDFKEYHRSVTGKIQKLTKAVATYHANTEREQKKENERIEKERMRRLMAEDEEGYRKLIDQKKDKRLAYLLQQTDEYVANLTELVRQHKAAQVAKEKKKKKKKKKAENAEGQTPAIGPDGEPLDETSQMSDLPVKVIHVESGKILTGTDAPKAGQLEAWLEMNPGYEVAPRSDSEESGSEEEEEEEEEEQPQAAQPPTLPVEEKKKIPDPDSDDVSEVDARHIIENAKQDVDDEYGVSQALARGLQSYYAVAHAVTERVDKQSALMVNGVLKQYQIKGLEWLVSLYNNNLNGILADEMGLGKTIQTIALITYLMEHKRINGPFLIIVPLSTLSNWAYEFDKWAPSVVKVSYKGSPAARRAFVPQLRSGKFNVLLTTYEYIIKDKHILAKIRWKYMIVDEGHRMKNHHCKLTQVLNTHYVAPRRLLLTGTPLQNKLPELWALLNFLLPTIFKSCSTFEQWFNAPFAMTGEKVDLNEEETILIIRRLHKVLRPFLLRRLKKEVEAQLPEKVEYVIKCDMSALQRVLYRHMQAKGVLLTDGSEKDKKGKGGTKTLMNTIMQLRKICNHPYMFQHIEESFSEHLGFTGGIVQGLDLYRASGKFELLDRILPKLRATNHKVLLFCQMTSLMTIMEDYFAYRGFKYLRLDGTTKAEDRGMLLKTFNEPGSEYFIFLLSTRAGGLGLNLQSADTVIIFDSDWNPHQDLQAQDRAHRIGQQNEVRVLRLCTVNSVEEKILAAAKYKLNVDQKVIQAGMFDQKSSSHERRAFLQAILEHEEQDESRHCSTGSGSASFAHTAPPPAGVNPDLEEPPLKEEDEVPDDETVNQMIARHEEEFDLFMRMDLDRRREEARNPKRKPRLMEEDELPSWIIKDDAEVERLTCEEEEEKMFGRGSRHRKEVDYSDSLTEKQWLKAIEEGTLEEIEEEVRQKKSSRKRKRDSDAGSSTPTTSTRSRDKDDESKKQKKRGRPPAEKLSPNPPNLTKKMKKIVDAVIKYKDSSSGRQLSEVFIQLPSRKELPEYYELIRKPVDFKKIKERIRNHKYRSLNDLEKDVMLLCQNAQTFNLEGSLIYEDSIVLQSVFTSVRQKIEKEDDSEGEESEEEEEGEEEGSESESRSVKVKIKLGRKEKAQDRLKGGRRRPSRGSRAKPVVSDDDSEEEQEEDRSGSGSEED
Summary of the method: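 Biochemical ADP-Glo assay, BRG-1. Post-reaction: ATP depletion reagent, 40 min RT; ADP→ATP conversion/detection reagent, 60 min RT; luminescence read on plate luminometer.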

[1] = ATPase catalytic activity, ADP-Glo

Compound | IC50 (BRM; ADP-Glo ATPase assay) | Ratio* (BRG1 IC50 (μM) divided by BRM IC50 (μM)) (BRM) | IC50 (BRG-1; ADP-Glo ATPase assay) | IC50 (BRM; [1]) | Ratio* (BRM; ratio of BRG1 IC50 to BRM IC50) | IC50 (BRG-1; [1]) | Ratio* (BRM; ratio BRG1 IC50 / BRM IC50)
N=S1(=O)CCOCc2ccc(C(=O)NCc3cc4nc(-c5cncc(C6CC6)n5)ccc4cn3)cc21 (stereo not drawn) [Compound 286] | 351 nM | 13.91 | 4890 nM |  |  |  | 
O=C(NCc1cc2nc(-c3cccc(C4(F)CCC4)n3)ccc2cn1)c1ccc2c(c1)S(=O)(=O)CCOC2 [Compound 154] | 142 nM | 14.94 | 2130 nM |  |  |  | 
CN(CC1COC1)c1cccc(-c2ccc3cnc(CNC(=O)c4ccc5c(c4)S(=O)(=O)CCOC5)cc3n2)n1 [Compound 71] | 23.9 nM | 11.93 | 285 nM |  |  |  | 
COCc1ccc2c(n1)N(c1ccc3cnc(CNC(=O)c4ccc5c(c4)S(=O)(=O)CCOC5)cc3n1)CCC2 [Compound 445] |  |  |  | 20.4 nM | 32.29 | 658 nM | 
O=C(NCc1cc2nc(-c3cccc(C4CCOC4)n3)ccc2cn1)c1ccc2c(c1)S(=O)(=O)CCOC2 (stereo not drawn) [Compound 376] |  |  |  | 66.4 nM | 8.06 | 535 nM | 
O=C(NCc1cc2nc(N3CCOc4cc(N5CCC5)ncc43)ccc2cn1)c1ccc2c(c1)S(=O)(=O)CCOC2 [Compound 834] | 20.2 nM |  | 291 nM |  |  |  | 14.40
C[C@@H]1CN(c2cccc(-c3ccc4cnc(CNC(=O)c5cnc6c(c5)S(=O)(=O)[C@@H](C)CCC6)cc4n3)n2)C[C@H](C)O1 [Compound 509] |  |  |  | 6.4 nM | 4.21 | 26.9 nM | 
O=C(NCc1cc2nc(N3CCc4cc(F)cnc43)ccc2cn1)c1ccc2c(c1)S(=O)(=O)CCOC2 [Compound 727] | 103 nM |  | 1220 nM |  |  |  | 11.84
O=C(NCc1cc2nc(N3CCCc4cnc(C5CC5)nc43)ccc2cn1)c1ccc2c(c1)S(=O)(=O)CCOC2 [Compound 780] | 29 nM |  | 515 nM |  |  |  | 17.78
C[C@@H]1COC[C@H](C)N1c1cccc(-c2ccc3cnc(CNC(=O)c4ccc5c(c4)S(=O)(=O)CCOC5)cc3n2)n1 [Compound 104] | 203 nM | 4.45 | 903 nM |  |  |  | 
O=C(NCc1cc2nc(-c3cccc(C4CC(F)(F)C4)n3)ccc2cn1)c1ccc2c(c1)S(=O)(=O)CCOC2 [Compound 171] | 52.4 nM | 9.52 | 499 nM |  |  |  | 
Cn1ccc2c(-c3ccc4cnc(CNC(=O)c5ccc6c(c5)S(=O)(=O)CCOC6)cc4n3)ccc(Cl)c21 [Compound 43] | 19.8 nM | 9.33 | 185 nM |  |  |  | 
CCO[C@H]1CCS(=O)(=O)c2cc(C(=O)NCc3cc4nc(-c5cccc(N6C[C@@H](C)O[C@@H](C)C6)n5)ccc4cn3)ccc2C1 [Compound 482] |  |  |  | 23.1 nM | 10.09 | 234 nM | 
C[C@H]1C[C@@H]1c1ccc2c(n1)N(c1ccc3cnc(CNC(=O)c4ccc5c(c4)S(=O)(=O)CCOC5)cc3n1)CCO2 [Compound 810] | 8.3 nM |  | 185 nM |  |  |  | 22.29
CN(c1cccc(-c2ccc3cnc(CNC(=O)c4ccc5c(c4)S(=O)(=O)CCOC5)cc3n2)n1)C1CC1 [Compound 94] | 32 nM | 9.02 | 288 nM |  |  |  | 
C[C@@H]1CN(c2cccc(-c3ccc4cnc(CNC(=O)c5ccc6c(c5)S(=O)(=O)CCOC6)cc4n3)n2)CCO1 [Compound 225] | 4.6 nM | 6.29 | 28.7 nM |  |  |  | 
CCOc1nc(-c2ccc3cnc(CNC(=O)c4ccc5c(c4)S(=O)(=O)[C@@H](C)COC5)cc3n2)ccc1F [Compound 497] |  |  |  | 25.9 nM | 15.92 | 411 nM | 
O=C(NCc1cc2nc(N3CCCc4cc(C5CC5)cnc43)ccc2cn1)c1ccc2c(c1)S(=O)(=O)CCOC2 [Compound 394] |  |  |  | 5.8 nM | 15.21 | 87.9 nM | 

Compound | IC50 (BRM; ADP-Glo ATPase assay) | Ratio* (BRG1 IC50 (μM) divided by BRM IC50 (μM)) (BRM) | IC50 (BRG-1; ADP-Glo ATPase assay) | IC50 (BRM; [1]) | Ratio* (BRM; ratio of BRG1 IC50 to BRM IC50) | IC50 (BRG-1; [1]) | Ratio* (BRM; ratio BRG1 IC50 / BRM IC50)
C[C@@H]1CN(c2cccc(-c3ccc4cnc(CNC(=O)c5cc(Cl)c6c(c5)S(=O)(=O)CCOC6)cc4n3)n2)C[C@H](C)O1 [Compound 143] | 7.6 nM | 14.36 | 108 nM |  |  |  | 
Cn1c(C(F)F)cc2c(-c3ccc4cnc(CNC(=O)c5ccc6c(c5)S(=O)(=O)CCOC6)cc4n3)ccnc21 [Compound 397] |  |  |  | 15.2 nM | 11.51 | 175 nM | 
CO[C@H]1C[C@H](N(C)c2cccc(-c3ccc4cnc(CNC(=O)c5ccc6c(c5)S(=O)(=O)CCOC6)cc4n3)n2)C1 [Compound 42] | 17.3 nM | 7.37 | 127 nM |  |  |  | 
Cc1nc2c(cc1F)OCCN2c1ccc2cnc(CNC(=O)c3ccc4c(c3)S(=O)(=O)CCOC4)cc2n1 [Compound 770] | 16.4 nM |  | 339 nM |  |  |  | 20.67
CN(C)c1cccc(-c2ccc3cnc(CNC(=O)c4cc(F)c5c(c4)S(=O)(=O)CCOC5)cc3n2)n1 [Compound 284] | 12.1 nM | 14.69 | 178 nM |  |  |  | 
C[C@H]1COCc2ccc(C(=O)NCc3cc4nc(-c5cccc(N6C[C@H]7COC[C@H]7C6)n5)ccc4cn3)cc2S1(=O)=O [Compound 709] | 37.6 nM |  | 436 nM |  |  |  | 11.57
C[C@@H]1CN(c2cccc(-c3ccc4cnc(CNC(=O)c5cc(F)c6c(c5)S(=O)(=O)CCO[C@H]6C)cc4n3)n2)C[C@H](C)O1 [Compound 522] |  |  |  | 13.8 nM | 4.48 | 62.1 nM | 
C[C@H]1CCN(C)c2nc(-c3ccc4cnc(CNC(=O)c5ccc6c(c5)S(=O)(=O)CCOC6)cc4n3)ccc21 [Compound 694] |  |  |  | 34.2 nM | 8.38 | 287 nM | 
COCc1ccc(C(=O)NCc2cc3nc(-c4cccc(N5C[C@@H](C)O[C@@H](C)C5)n4)ccc3cn2)cc1S(C)(=O)=O [Compound 192] | 5.1 nM | 6.45 | 32.7 nM |  |  |  | 
COC1CCS(=O)(=O)c2cc(C(=O)NCc3cc4nc(-c5cccc(N6C[C@@H](C)O[C@@H](C)C6)n5)ccc4cn3)ccc2C1 (stereo partly drawn) [Compound 344] |  |  |  | 7.6 nM | 2.68 | 20.3 nM | 
C[C@@H]1CN(c2cccc(-c3ccc4cnc(CNC(=O)c5cc(Cl)c6c(c5)S(=O)(=O)CCOC6)cc4n3)n2)C[C@H](C)O1 [Compound 389] |  |  |  | 13.7 nM | 38.63 | 528 nM | 
Cc1ncc(C(=O)NCc2cc3nc(-c4cccc(N5C[C@@H](C)O[C@@H](C)C5)n4)ccc3cn2)cc1S(C)(=O)=O [Compound 107] | 5.6 nM | 9.98 | 56 nM |  |  |  | 
O=C(NCc1cc2nc(-c3cccc4c3CCCN4CC(F)F)ccc2cn1)c1ccc2c(c1)S(=O)(=O)CCOC2 [Compound 127] | 846 nM | 4.79 | 4050 nM |  |  |  | 
COCCN(CC(F)F)c1cccc(-c2ccc3cnc(CNC(=O)c4ccc5c(c4)S(=O)(=O)CCOC5)cc3n2)n1 [Compound 358] |  |  |  | 4.6 nM | 7.69 | 35.4 nM | 
CO[C@@H]1COc2c(-c3ccc4cnc(CNC(=O)c5ccc6c(c5)S(=O)(=O)CCOC6)cc4n3)cccc2N(C)C1 [Compound 614] |  |  |  | 95.1 nM | 9.06 | 862 nM | 
CC(C)S(=O)(=O)c1cccc(C(=O)NCc2cc3nc(-c4cccc(N5C[C@@H](C)O[C@@H](C)C5)n4)ccc3cn2)c1 [Compound 365] |  |  |  | 13.1 nM | 24.88 | 325 nM | 
CCOc1cccc(-c2ccc3cnc(CNC(=O)c4ccc5c(c4)S(=O)(=O)CCOC5)cc3n2)n1 [Compound 239] | 20.6 nM | 20.48 | 422 nM |  |  |  | 
COC[C@H]1COc2c(-c3ccc4cnc(CNC(=O)c5ccc6c(c5)S(=O)(=O)CCOC6)cc4n3)cccc2N1C [Compound 638] |  |  |  | 227 nM | 3.90 | 883 nM | 
